Measurements as given in PubChem BioAssay AID1259246 (Broad Institute, 2017).
Several values for one entry are separate records, joined by “and”; a condition that tells them apart may be missing. Equal entries are not always repeated. Inconclusive results are not listed. Activity calls are given as the source filed them.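 Rule for the calls: active = valid dose-response fit whose half-maximal growth-inhibiting concentration is at or below a set limit above the top tested dose; inconclusive = flat fit with effect between 30 and 70%, or poor fit; inactive = half-maximal concentration above a set limit.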

Each compound was assayed on Clostridioides difficile clinical isolate growth, OD600, 24 h (assay: antibacterial activity against Clostridioides difficile – 10-point retest, dose response (AID 1259246)).
In the case of `CO[C@H](CN(C)C(=O)C1CCOCC1)[C@@H](C)CN(C(=O)Nc1ccc(C(F)(F)F)cc1)[C@H](C)CO`, the IC50 is reported as 14.5 µM.
For `CO[C@@H]1CN(C)C(=O)c2cc(NC(=O)Nc3cc(Cl)cc(Cl)c3)ccc2OC[C@H](C)NC[C@H]1C`, the IC50 was 15.8 µM and 36.4 µM.
With `COc1ccc(S(=O)(=O)Nc2cccc3c2O[C@H](CN(C)Cc2ccc(-c4ccccc4)cc2)[C@H](C)CN([C@@H](C)CO)C3=O)cc1` the IC50 was 54.2 µM.
With `CO[C@H]1CN(C)C(=O)c2ccc(NC(=O)Nc3ccc(Cl)c(Cl)c3)cc2OC[C@H](C)NC[C@@H]1C` the IC50 was 37.6 µM.
`COc1ccc(CN(C)C[C@H]2OCCCC[C@H](C)Oc3ccc(NC(=O)Nc4ccc(C(F)(F)F)cc4)cc3C(=O)N([C@@H](C)CO)C[C@@H]2C)cc1` gave an IC50 of 67.7 µM.
`COc1ccc(NC(=O)Nc2cccc3c2O[C@H](CN(C)Cc2ccc(C(F)(F)F)cc2)[C@H](C)CN([C@@H](C)CO)C3=O)cc1` showed an IC50 of 25.6 µM.
In the case of `CO[C@H]1CN(C)C(=O)c2ccc(NC(=O)Nc3ccc(Cl)c(Cl)c3)cc2OC[C@H](C)NC[C@H]1C`, the IC50 is reported as 14.9 µM and 8.28 µM.
`CO[C@H]1CN(C)C(=O)c2ccc(NC(=O)Nc3cc(Cl)cc(Cl)c3)cc2OC[C@H](C)NC[C@H]1C` was tested, and the IC50 was 25.6 µM and 69.2 µM.
Compound `COc1ccc(C#Cc2cnc3c(c2)C(=O)N([C@@H](C)CO)C[C@@H](C)[C@H](CN(C)CC2CCCC2)O3)cc1` has an IC50 of 188 µM.
`CO[C@H]1CN(C)C(=O)c2cc(NC(=O)Nc3cc(Cl)cc(Cl)c3)ccc2OC[C@@H](C)NC[C@@H]1C` was tested, and the IC50 was 33.9 µM and 6.17 µM.
In the case of `Cc1noc(C)c1NC(=O)Nc1cccc2c1O[C@H](CN(C)Cc1ccc(Oc3ccccc3)cc1)[C@H](C)CN([C@@H](C)CO)C2=O`, the IC50 is reported as 57.4 µM and 36.1 µM.
`C[C@@H]1CCCCO[C@H](CN(C)Cc2ccc3c(c2)OCO3)[C@@H](C)CN([C@@H](C)CO)C(=O)c2cc(NS(=O)(=O)c3cccs3)ccc2O1` gave an IC50 of 33.5 µM.
Work on `C[C@H](CO)N1C[C@H](C)[C@H](CN(C)C(=O)NC2CCCCC2)Oc2ncc(C#Cc3ccc(F)cc3)cc2C1=O` yielded an IC50 of 37.7 µM.
With `C[C@@H]1CN([C@@H](C)CO)C(=O)c2cccc(NC(=O)Nc3ccccc3)c2O[C@@H]1CN(C)Cc1ccc(-c2ccccc2)cc1` the IC50 was 3.3 µM and 1.93 µM and 5.49 µM.
For `CNC[C@H]1Oc2cc(C#CC3CCCCC3)ccc2S(=O)(=O)N([C@H](C)CO)C[C@@H]1C`, the IC50 was 63.8 µM.
`C[C@@H]1CN([C@@H](C)CO)C(=O)Cc2cc(NC(=O)CCCN(C)C)ccc2O[C@H]1CN(C)Cc1ccc(Oc2ccccc2)cc1` gave an IC50 of 71.1 µM.
In the case of `O=C(NCC[C@H]1CC[C@H](NS(=O)(=O)c2ccc(F)cc2)[C@@H](CO)O1)Nc1ccc(Cl)cc1`, the IC50 is reported as 26.6 µM.
`CO[C@@H](CN(C)C(=O)C1CCOCC1)[C@H](C)CN(C(=O)Nc1ccc(C(F)(F)F)cc1)[C@@H](C)CO` gave an IC50 of 23.4 µM.
`O=C(C[C@@H]1CC[C@H]2[C@@H](COC[C@H](O)CN2S(=O)(=O)c2ccccc2)O1)NCC1CCCCC1` gave an IC50 of 35.1 µM.
Work on `C[C@H]1CN([C@@H](C)CO)S(=O)(=O)c2ccc(C#CCC3CCCC3)cc2O[C@@H]1CN(C)C` yielded an IC50 of 72.5 µM.
Work on `COc1ccc(CN(C)C[C@@H]2OCCCC[C@H](C)Oc3ccc(NC(=O)Nc4cccc5ccccc45)cc3C(=O)N([C@H](C)CO)C[C@H]2C)cc1` yielded an IC50 of 87.9 µM.
For `Cc1ccc(S(=O)(=O)Nc2ccc3c(c2)C(=O)N([C@@H](C)CO)C[C@H](C)[C@@H](CN(C)Cc2ccc4c(c2)OCO4)OCCCC[C@@H](C)O3)cc1`, the IC50 was 17.6 µM.
For `CO[C@H]1CN(C)C(=O)c2cc(NC(=O)Nc3ccc(Cl)c(Cl)c3)ccc2OC[C@H](C)NC[C@@H]1C`, the IC50 was 15.1 µM and 73 µM.
`O=C(NCC[C@@H]1CC[C@H](NC(=O)Nc2cc(F)ccc2F)[C@H](CO)O1)Nc1ccc(Cl)cc1` was tested, and the IC50 was > 240 µM (inactive).
For `C[C@@H]1CN([C@@H](C)CO)C(=O)c2cccc(NC(=O)Nc3ccc(C(F)(F)F)cc3)c2O[C@@H]1CN(C)Cc1ccc(Oc2ccccc2)cc1`, the IC50 was 0.443 µM and 0.73 µM.
With `C[C@H]1CN([C@@H](C)CO)S(=O)(=O)c2ccc(/C=C/c3ccccc3)cc2O[C@@H]1CN(C)Cc1ccc(C(=O)O)cc1` the IC50 was 62.8 µM.
For `CO[C@@H]1CN(C)C(=O)c2cc(NC(=O)Nc3cc(Cl)cc(Cl)c3)ccc2OC[C@H](C)NC[C@@H]1C`, the IC50 was 37.8 µM and 35.6 µM.
Compound `C[C@H]1CN([C@@H](C)CO)S(=O)(=O)c2ccc(C#Cc3ccc(F)cc3)cc2O[C@@H]1CN(C)C` has an IC50 of 69.9 µM.
`C[C@@H]1CN([C@@H](C)CO)C(=O)c2cccc(NC(=O)Nc3ccc(F)cc3)c2O[C@@H]1CN(C)Cc1ccc(C(F)(F)F)cc1` was tested, and the IC50 was 13 µM and 3.27 µM and 6.22 µM.
For `C[C@@H]1CN([C@@H](C)CO)C(=O)c2cc(NC(=O)Nc3cccc4ccccc34)ccc2O[C@@H](C)CCCCO[C@H]1CN(C)CC1CCCCC1`, the IC50 was 77.1 µM.
Compound `COc1ccc(S(=O)(=O)Nc2ccc3c(c2)C(=O)N([C@@H](C)CO)C[C@H](C)[C@@H](CN(C)Cc2ccc4c(c2)OCO4)OCCCC[C@@H](C)O3)cc1` has an IC50 of 12 µM.
With `CO[C@H]1CN(C)C(=O)c2cc(NC(=O)Nc3cc(Cl)cc(Cl)c3)ccc2OC[C@H](C)NC[C@@H]1C` the IC50 was 34 µM and 55 µM.
Work on `Cc1ccc(-c2ccc3c(c2)O[C@@H](CN(C)Cc2ccc(C(=O)O)cc2)[C@H](C)CN([C@H](C)CO)S3(=O)=O)cc1` yielded an IC50 of 97 µM.
`CO[C@@H]1CN(C)C(=O)c2cc(NC(=O)Nc3ccc(Cl)c(Cl)c3)ccc2OC[C@@H](C)NC[C@@H]1C` was tested, and the IC50 was 13.7 µM and 26.6 µM.
Compound `C[C@@H]1CN([C@@H](C)CO)C(=O)c2cccc(NC(=O)Nc3ccc(C(F)(F)F)cc3)c2O[C@@H]1CN(C)Cc1ccccc1` has an IC50 of 2.69 µM.
With `C[C@@H]1CN([C@@H](C)CO)C(=O)c2cccc(NC(=O)Nc3ccc4c(c3)OCO4)c2O[C@@H]1CN(C)Cc1ccc(Oc2ccccc2)cc1` the IC50 was less than 0.26 µM.
Work on `C[C@@H]1CN([C@H](C)CO)S(=O)(=O)c2ccc(/C=C/c3ccccc3)cc2O[C@@H]1CN(C)Cc1ccc(C(=O)O)cc1` yielded an IC50 of 153 µM.
`Cc1cc(C(=O)Nc2cccc3c2O[C@@H](CN(C)Cc2ccc(-c4ccccc4)cc2)[C@H](C)CN([C@@H](C)CO)C3=O)n(C)n1` was tested, and the IC50 was 17.5 µM.
With `C[C@@H]1CN([C@@H](C)CO)C(=O)c2cccc(NC(=O)Nc3ccc(C(F)(F)F)cc3)c2O[C@@H]1CN(C)C(=O)Nc1ccc(F)cc1` the IC50 was 13.9 µM and > 240 µM (inactive).
In the case of `C[C@H]1CN([C@@H](C)CO)C(=O)Cc2cc(NC(=O)Nc3ccc(C(F)(F)F)cc3)ccc2O[C@H]1CN(C)Cc1ccncc1`, the IC50 is reported as 7.49 µM.
With `CN(C)CC(=O)N1[C@H](C#N)[C@H](c2ccc(C#CC3CCCCC3)cc2)[C@@H]1CO` the IC50 was 65.2 µM.
`COc1ccc(NC(=O)Nc2cccc3c2O[C@H](CN(C)Cc2ccc(-c4ccccc4)cc2)[C@H](C)CN([C@@H](C)CO)C3=O)cc1` gave an IC50 of 101 µM.
With `CCS(=O)(=O)N1[C@H](CO)[C@H](c2ccc(C#CCC3CCCC3)cc2)[C@@H]1C#N` the IC50 was 80.2 µM.
Work on `C[C@@H]1CN([C@@H](C)CO)S(=O)(=O)c2ccc(C#CCC3CCCC3)cc2O[C@H]1CN(C)Cc1ccc(C(=O)O)cc1` yielded an IC50 of 32.4 µM.
`C[C@@H]1CN([C@H](C)CO)C(=O)Cc2cc(NC(=O)CCCN(C)C)ccc2O[C@H]1CN(C)Cc1ccc(-c2ccccc2)cc1` was tested, and the IC50 was 74.7 µM and 48 µM.
Compound `Cc1ccc(-c2ccc3c(c2)O[C@@H](CN(C)Cc2ccc(C(=O)O)cc2)[C@H](C)CN([C@@H](C)CO)S3(=O)=O)cc1` has an IC50 of 110 µM.
With `Cc1ccc(S(=O)(=O)N[C@H]2CC[C@@H](CCNC(=O)Nc3ccc(Cl)cc3)O[C@H]2CO)cc1` the IC50 was > 270 µM (inactive).
`CO[C@@H]1CN(C)C(=O)c2ccc(NC(=O)c3ccc(-c4ccccc4)cc3)cc2OC[C@@H](C)NC[C@@H]1C` showed an IC50 of 62.8 µM.
In the case of `C[C@@H]1CN([C@@H](C)CO)C(=O)c2cccc(NS(=O)(=O)c3ccccc3)c2O[C@@H]1CN(C)Cc1ccc(-c2ccccc2)cc1`, the IC50 is reported as 62.5 µM.
`C[C@@H]1CN([C@@H](C)CO)C(=O)c2ccccc2-c2ccccc2CO[C@H]1CN(C)Cc1ccccc1C(F)(F)F` gave an IC50 of 19.5 µM.
For `C[C@H](CO)N1C[C@H](C)[C@H](CN(C)C(=O)Nc2ccccc2)Oc2c(NC(=O)Nc3ccc(C(F)(F)F)cc3)cccc2C1=O`, the IC50 was 19.8 µM.
Work on `C[C@@H]1CN([C@H](C)CO)S(=O)(=O)c2ccc(C#CCC3CCCC3)cc2O[C@H]1CN(C)Cc1ccc(C(=O)O)cc1` yielded an IC50 of 76.2 µM.
For `C[C@@H]1CN([C@@H](C)CO)S(=O)(=O)c2ccc(/C=C/c3ccccc3)cc2O[C@@H]1CN(C)Cc1ccc(C(=O)O)cc1`, the IC50 was > 240 µM (inactive).
For `C[C@@H]1CN([C@@H](C)CO)C(=O)c2cccc(NC(=O)Nc3ccc(C(F)(F)F)cc3)c2O[C@@H]1CN(C)Cc1ccc(-c2ccccc2)cc1`, the IC50 was 0.3 µM and 1.52 µM and 0.654 µM.
With `CO[C@@H](CN(C)C(=O)C1CCOCC1)[C@@H](C)CN(C(=O)Nc1ccc(C(F)(F)F)cc1)[C@H](C)CO` the IC50 was 4.1 µM.
`COc1ccc(S(=O)(=O)N(C)C[C@H]2Oc3ccc(NC(=O)Nc4ccc(C(F)(F)F)cc4)cc3C(=O)N([C@@H](C)CO)C[C@@H]2C)cc1` was tested, and the IC50 was 51.2 µM.
Compound `C[C@@H]1CN([C@H](C)CO)S(=O)(=O)c2ccc(/C=C/c3ccccc3)cc2O[C@H]1CN(C)Cc1ccc(C(=O)O)cc1` has an IC50 of 6.11 µM.
In the case of `CO[C@H]1CN(C)C(=O)c2cc(NC(=O)Nc3ccc(Cl)c(Cl)c3)ccc2OC[C@@H](C)NC[C@@H]1C`, the IC50 is reported as 14.5 µM and 17.6 µM.
`CNC[C@H]1Oc2c(NC(=O)Nc3ccc(C(F)(F)F)cc3)cccc2C(=O)N([C@@H](C)CO)C[C@H]1C` was tested, and the IC50 was 36.7 µM.
For `C[C@H]1CN([C@@H](C)CO)S(=O)(=O)c2ccc(C#CCC3CCCC3)cc2O[C@H]1CN(C)C`, the IC50 was 70.9 µM.
`CO[C@@H](CN(C)C(=O)C1CCOCC1)[C@@H](C)CN(C(=O)Nc1ccc(C(F)(F)F)cc1)[C@@H](C)CO` gave an IC50 of 38.8 µM.
For `CO[C@@H](CN(C)C(=O)C1CC1)[C@H](C)CN(C(=O)Nc1ccc(C(F)(F)F)cc1)[C@@H](C)CO`, the IC50 was 6.58 µM.
`CO[C@H](CN(C)C(=O)C1CCOCC1)[C@H](C)CN(C(=O)Nc1ccc(C(F)(F)F)cc1)[C@H](C)CO` showed an IC50 of 26.2 µM.
In the case of `C[C@@H]1CN([C@@H](C)CO)C(=O)c2cccc(NC(=O)Nc3ccccc3)c2O[C@@H]1CN(C)Cc1ccc(C(F)(F)F)cc1`, the IC50 is reported as 54.2 µM and 28 µM.
`C[C@@H]1CN([C@@H](C)CO)C(=O)c2cccc(NC(=O)Nc3ccccc3)c2O[C@@H]1CN(C)Cc1ccc(Oc2ccccc2)cc1` was tested, and the IC50 was 1.2 µM and 0.402 µM and < 0.235 µM.
Work on `CO[C@H](CN(C)C(=O)C1CCOCC1)[C@@H](C)CN(C(=O)Nc1ccc(C(F)(F)F)cc1)[C@@H](C)CO` yielded an IC50 of 2.03 µM.
For `CO[C@H]1CN(C)C(=O)c2cc(NC(=O)Nc3cc(Cl)cc(Cl)c3)ccc2OC[C@H](C)NC[C@H]1C`, the IC50 was 41.2 µM and 8.16 µM.
With `CO[C@@H]1CN(C)C(=O)c2cc(NC(=O)Nc3ccc(Cl)c(Cl)c3)ccc2OC[C@H](C)NC[C@H]1C` the IC50 was 16 µM and 11.3 µM.
With `CNC[C@@H]1Oc2cc(C#CCC3CCCC3)ccc2S(=O)(=O)N([C@H](C)CO)C[C@H]1C` the IC50 was 68.6 µM.
`CO[C@H]1CN(C)C(=O)c2cc(NC(=O)Nc3cc(Cl)cc(Cl)c3)ccc2OC[C@@H](C)NC[C@H]1C` was tested, and the IC50 was 31.2 µM and 25.9 µM.
